ChEMBL document CHEMBL5331117, “X-Ray Conformation and Structure-Activity Relationships of MA026, a Reversible Tight Junction Opener” (J Med Chem, 2023)

The compounds below were run on MDCK-II (assay: Induction of claudin-1 mediated tight junction opening in MDCK-II cells assessed as increase in FITC-conjugated dextran incubated for 5 hrs relative to control). Settings: Canis lupus familiaris.
Type: cell-based
Set-up: concentration or dose not given beside the values

| SMILES | Activity [%] |
| --- | --- |
| CC[C@H](C)[C@@H]1NC(=O)[C@@H](CCC(N)=O)NC(=O)[C@H](CC(C)C)NC(=O)[C@H](CC(C)C)NC(=O)[C@@H](CCC(N)=O)NC(=O)[C@@H](CC(C)C)NC(=O)[C@@H](C(C)C)NC(=O)[C@H](NC(=O)[C@H](CCC(N)=O)NC(=O)[C@@H](CC(C)C)NC(=O)[C@H](NC(=O)[C@@H](CCC(N)=O)NC(=O)[C@@H](CCC(=O)O)NC(=O)[C@H](CC(C)C)NC(C)=O)C(C)C)COC1=O | -2.8 |
| CCCCCCCCCC(=O)N[C@@H](CC(C)C)C(=O)N[C@H](CCC(=O)O)C(=O)N[C@H](CCC(N)=O)C(=O)N[C@H](C(=O)N[C@H](CC(C)C)C(=O)N[C@@H](CCC(N)=O)C(=O)N[C@@H]1COC(=O)[C@H]([C@@H](C)CC)NC(=O)[C@@H](CCC(N)=O)NC(=O)[C@H](CC(C)C)NC(=O)[C@H](CC(C)C)NC(=O)[C@@H](CCC(N)=O)NC(=O)[C@@H](CC(C)C)NC(=O)[C@@H](C(C)C)NC1=O)C(C)C | 8.6 |
| CCCCCCC[C@@H](O)CC(=O)N[C@@H](CC(C)C)C(=O)N[C@H](CCC(=O)O)C(=O)N[C@H](CCC(N)=O)C(=O)N[C@@H](C(=O)N[C@H](C)C(=O)N[C@@H](CCC(N)=O)C(=O)N[C@@H]1COC(=O)[C@H]([C@@H](C)CC)NC(=O)[C@@H](CCC(N)=O)NC(=O)[C@H](CC(C)C)NC(=O)[C@H](CC(C)C)NC(=O)[C@@H](CCC(N)=O)NC(=O)[C@@H](CC(C)C)NC(=O)[C@@H](C(C)C)NC1=O)C(C)C | 9.2 |
| CCCCCCC[C@@H](O)CC(=O)N[C@@H](CC(C)C)C(=O)N[C@H](CCC(=O)O)C(=O)N[C@H](C)C(=O)N[C@@H](C(=O)N[C@H](CC(C)C)C(=O)N[C@@H](CCC(N)=O)C(=O)N[C@@H]1COC(=O)[C@H]([C@@H](C)CC)NC(=O)[C@@H](CCC(N)=O)NC(=O)[C@H](CC(C)C)NC(=O)[C@H](CC(C)C)NC(=O)[C@@H](CCC(N)=O)NC(=O)[C@@H](CC(C)C)NC(=O)[C@@H](C(C)C)NC1=O)C(C)C | 32 |
| CCCCCCCCCC(=O)N[C@@H](CC(C)C)C(=O)N[C@H](CCC(=O)O)C(=O)N[C@H](CCC(N)=O)C(=O)N[C@@H](C(=O)N[C@H](CC(C)C)C(=O)N[C@@H](CCC(N)=O)C(=O)N[C@@H]1COC(=O)[C@H]([C@@H](C)CC)NC(=O)[C@@H](CCC(N)=O)NC(=O)[C@H](CC(C)C)NC(=O)[C@@H](CC(C)C)NC(=O)[C@@H](CCC(N)=O)NC(=O)[C@@H](CC(C)C)NC(=O)[C@@H](C(C)C)NC1=O)C(C)C | -2 |
| CCCCCCC[C@@H](O)CC(=O)N[C@@H](CC(C)C)C(=O)N[C@H](CCC(=O)O)C(=O)N[C@H](CCC(N)=O)C(=O)N[C@@H](C(=O)N[C@H](CC(C)C)C(=O)N[C@@H](CCC(N)=O)C(=O)N[C@@H]1COC(=O)[C@H]([C@@H](C)CC)NC(=O)[C@@H](CCC(N)=O)NC(=O)[C@H](CC(C)C)NC(=O)[C@H](CC(C)C)NC(=O)[C@@H](CCC(N)=O)NC(=O)[C@@H](CC(C)C)NC(=O)[C@@H](C)NC1=O)C(C)C | 22.3 |
| CCCCCCCCCCCCC(=O)N[C@@H](CC(C)C)C(=O)N[C@H](CCC(=O)O)C(=O)N[C@H](CCC(N)=O)C(=O)N[C@@H](C(=O)N[C@H](CC(C)C)C(=O)N[C@@H](CCC(N)=O)C(=O)N[C@@H]1COC(=O)[C@H]([C@@H](C)CC)NC(=O)[C@@H](CCC(N)=O)NC(=O)[C@H](CC(C)C)NC(=O)[C@H](CC(C)C)NC(=O)[C@@H](CCC(N)=O)NC(=O)[C@@H](CC(C)C)NC(=O)[C@@H](C(C)C)NC1=O)C(C)C | 33.3 |
| CCCCCCCCCC(=O)N[C@@H](CC(C)C)C(=O)N[C@H](CCC(=O)O)C(=O)N[C@@H](CCC(N)=O)C(=O)N[C@@H](C(=O)N[C@H](CC(C)C)C(=O)N[C@@H](CCC(N)=O)C(=O)N[C@@H]1COC(=O)[C@H]([C@@H](C)CC)NC(=O)[C@@H](CCC(N)=O)NC(=O)[C@H](CC(C)C)NC(=O)[C@H](CC(C)C)NC(=O)[C@@H](CCC(N)=O)NC(=O)[C@@H](CC(C)C)NC(=O)[C@@H](C(C)C)NC1=O)C(C)C | 17.6 |
| CCCCCCC[C@@H](O)CC(=O)N[C@@H](CC(C)C)C(=O)N[C@H](CCC(=O)O)C(=O)N[C@H](CCC(N)=O)C(=O)N[C@@H](C(=O)N[C@H](CC(C)C)C(=O)N[C@@H](CCC(N)=O)C(=O)N[C@@H]1COC(=O)[C@H]([C@@H](C)CC)NC(=O)[C@@H](CCC(N)=O)NC(=O)[C@H](CC(C)C)NC(=O)[C@H](C)NC(=O)[C@@H](CCC(N)=O)NC(=O)[C@@H](CC(C)C)NC(=O)[C@@H](C(C)C)NC1=O)C(C)C | 12.7 |
| CC[C@H](C)[C@@H]1NC(=O)[C@@H](CCC(N)=O)NC(=O)[C@H](CC(C)C)NC(=O)[C@H](CC(C)C)NC(=O)[C@@H](CCC(N)=O)NC(=O)[C@@H](CC(C)C)NC(=O)[C@@H](C(C)C)NC(=O)[C@H](NC(=O)[C@H](CCC(N)=O)NC(=O)[C@@H](CC(C)C)NC(=O)[C@H](NC(=O)[C@@H](CCC(N)=O)NC(=O)[C@@H](CCC(=O)O)NC(=O)[C@H](CC(C)C)NC(=O)CCO)C(C)C)COC1=O | -3 |
| CCCCCCC(=O)N[C@@H](CC(C)C)C(=O)N[C@H](CCC(=O)O)C(=O)N[C@H](CCC(N)=O)C(=O)N[C@@H](C(=O)N[C@H](CC(C)C)C(=O)N[C@@H](CCC(N)=O)C(=O)N[C@@H]1COC(=O)[C@H]([C@@H](C)CC)NC(=O)[C@@H](CCC(N)=O)NC(=O)[C@H](CC(C)C)NC(=O)[C@H](CC(C)C)NC(=O)[C@@H](CCC(N)=O)NC(=O)[C@@H](CC(C)C)NC(=O)[C@@H](C(C)C)NC1=O)C(C)C | -2.8 |
| CC[C@H](C)[C@@H]1NC(=O)[C@@H](CCC(N)=O)NC(=O)[C@H](CC(C)C)NC(=O)[C@H](CC(C)C)NC(=O)[C@@H](CCC(N)=O)NC(=O)[C@@H](CC(C)C)NC(=O)[C@@H](C(C)C)NC(=O)[C@H](NC(=O)[C@H](CCC(N)=O)NC(=O)[C@@H](CC(C)C)NC(=O)[C@H](NC(=O)[C@@H](CCC(N)=O)NC(=O)[C@@H](CCC(=O)O)NC(=O)[C@H](CC(C)C)NC(=O)CCCC(C)C)C(C)C)COC1=O | 2.6 |
| CCCCCCC[C@@H](O)CC(=O)N[C@@H](CC(C)C)C(=O)N[C@H](C)C(=O)N[C@H](CCC(N)=O)C(=O)N[C@@H](C(=O)N[C@H](CC(C)C)C(=O)N[C@@H](CCC(N)=O)C(=O)N[C@@H]1COC(=O)[C@H]([C@@H](C)CC)NC(=O)[C@@H](CCC(N)=O)NC(=O)[C@H](CC(C)C)NC(=O)[C@H](CC(C)C)NC(=O)[C@@H](CCC(N)=O)NC(=O)[C@@H](CC(C)C)NC(=O)[C@@H](C(C)C)NC1=O)C(C)C | 30.7 |
| CCCC(=O)N[C@@H](CC(C)C)C(=O)N[C@H](CCC(=O)O)C(=O)N[C@H](CCC(N)=O)C(=O)N[C@@H](C(=O)N[C@H](CC(C)C)C(=O)N[C@@H](CCC(N)=O)C(=O)N[C@@H]1COC(=O)[C@H]([C@@H](C)CC)NC(=O)[C@@H](CCC(N)=O)NC(=O)[C@H](CC(C)C)NC(=O)[C@H](CC(C)C)NC(=O)[C@@H](CCC(N)=O)NC(=O)[C@@H](CC(C)C)NC(=O)[C@@H](C(C)C)NC1=O)C(C)C | -1 |
| CC[C@H](C)[C@@H]1NC(=O)[C@@H](CCC(N)=O)NC(=O)[C@H](CC(C)C)NC(=O)[C@H](CC(C)C)NC(=O)[C@@H](CCC(N)=O)NC(=O)[C@@H](CC(C)C)NC(=O)[C@@H](C(C)C)NC(=O)[C@H](NC(=O)[C@H](CCC(N)=O)NC(=O)[C@@H](CC(C)C)NC(=O)[C@H](NC(=O)[C@@H](CCC(N)=O)NC(=O)[C@@H](CCC(=O)O)NC(=O)[C@H](CC(C)C)NC(=O)CCC2CCCCC2)C(C)C)COC1=O | 18.7 |
| CCCCCCC[C@@H](O)CC(=O)N[C@@H](CC(C)C)C(=O)N[C@H](CCC(=O)O)C(=O)N[C@H](CCC(N)=O)C(=O)N[C@H](C)C(=O)N[C@H](CC(C)C)C(=O)N[C@@H](CCC(N)=O)C(=O)N[C@@H]1COC(=O)[C@H]([C@@H](C)CC)NC(=O)[C@@H](CCC(N)=O)NC(=O)[C@H](CC(C)C)NC(=O)[C@H](CC(C)C)NC(=O)[C@@H](CCC(N)=O)NC(=O)[C@@H](CC(C)C)NC(=O)[C@@H](C(C)C)NC1=O | 14.4 |

Same assay, conditions: Canis lupus familiaris, filed as opener

| SMILES | Activity [%] |
| --- | --- |
| CCCCCCC[C@@H](O)CC(=O)N[C@@H](CC(C)C)C(=O)N[C@H](CCC(=O)O)C(=O)N[C@H](CCC(N)=O)C(=O)N[C@@H](C(=O)N[C@H](CC(C)C)C(=O)N[C@@H](C)C(=O)N[C@@H]1COC(=O)[C@H]([C@@H](C)CC)NC(=O)[C@@H](CCC(N)=O)NC(=O)[C@H](CC(C)C)NC(=O)[C@H](CC(C)C)NC(=O)[C@@H](CCC(N)=O)NC(=O)[C@@H](CC(C)C)NC(=O)[C@@H](C(C)C)NC1=O)C(C)C | 94.8 |
| CCCCCCCCCC(=O)N[C@@H](CC(C)C)C(=O)N[C@H](CCC(=O)O)C(=O)N[C@H](CCC(N)=O)C(=O)N[C@@H](C(=O)N[C@H](CC(C)C)C(=O)N[C@@H](CCC(N)=O)C(=O)N[C@@H]1COC(=O)[C@H]([C@@H](C)CC)NC(=O)[C@@H](CCC(N)=O)NC(=O)[C@H](CC(C)C)NC(=O)[C@H](CC(C)C)NC(=O)[C@@H](CCC(N)=O)NC(=O)[C@@H](CC(C)C)NC(=O)[C@@H](C(C)C)NC1=O)C(C)C | 174 |
| CCCCCCCCCC(=O)N[C@@H](CC(C)C)C(=O)N[C@@H](CCC(=O)O)C(=O)N[C@H](CCC(N)=O)C(=O)N[C@@H](C(=O)N[C@H](CC(C)C)C(=O)N[C@@H](CCC(N)=O)C(=O)N[C@@H]1COC(=O)[C@H]([C@@H](C)CC)NC(=O)[C@@H](CCC(N)=O)NC(=O)[C@H](CC(C)C)NC(=O)[C@H](CC(C)C)NC(=O)[C@@H](CCC(N)=O)NC(=O)[C@@H](CC(C)C)NC(=O)[C@@H](C(C)C)NC1=O)C(C)C | 85.4 |
| CCCCCCC[C@@H](O)CC(=O)N[C@@H](CC(C)C)C(=O)N[C@H](CCC(=O)O)C(=O)N[C@H](CCC(N)=O)C(=O)N[C@@H](C(=O)N[C@H](CC(C)C)C(=O)N[C@@H](CCC(N)=O)C(=O)N[C@@H]1COC(=O)[C@H]([C@@H](C)CC)NC(=O)[C@@H](C)NC(=O)[C@H](CC(C)C)NC(=O)[C@H](CC(C)C)NC(=O)[C@@H](CCC(N)=O)NC(=O)[C@@H](CC(C)C)NC(=O)[C@@H](C(C)C)NC1=O)C(C)C | 122 |
| CCCCCCCCCC(=O)N[C@@H](CC(C)C)C(=O)N[C@H](CCC(=O)O)C(=O)N[C@H](CCC(N)=O)C(=O)N[C@@H](C(=O)N[C@H](CC(C)C)C(=O)N[C@@H](CCC(N)=O)C(=O)N[C@@H]1COC(=O)[C@H]([C@@H](C)CC)NC(=O)[C@H](CCC(N)=O)NC(=O)[C@H](CC(C)C)NC(=O)[C@H](CC(C)C)NC(=O)[C@@H](CCC(N)=O)NC(=O)[C@@H](CC(C)C)NC(=O)[C@@H](C(C)C)NC1=O)C(C)C | 63.3 |
